According to patent US20130011427A1 (priority 2009, published 2013):

Assays:
Format in all cases: cell-based, mouse
[1] = system: HLA-DR3 (DRB1*0301) Tg mice, CD8-depleted splenocytes
[2] = system: HLA-A2.1 (HLA-A*0201) Tg mice, CD4-depleted splenocytes
[3] = system: HLA-DR2 (DRB1*1501) Tg mice, CD8-depleted splenocytes
[4] = system: HLA-DR4/huCD4 (DRB1*0401) Tg mice, CD8-depleted splenocytes

| Sequence | T cell activation of HLA transgenic mice (SFC/10^6) IFN-γ ELISpot, DR3 [1] | T cell activation of HLA transgenic mice (SFC/10^6) IFN-γ ELISpot, A2 [2] | T cell activation of HLA transgenic mice (SFC/10^6) IFN-γ ELISpot, DR2 [3] | T cell activation of HLA transgenic mice (SFC/10^6) IFN-γ ELISpot, DR4 [4] |
| --- | --- | --- | --- | --- |
| IVVGRGEQQINHHWHK [E 384-399] | 87 ± 16 SFC/10^6 |  |  |  |
| ALLTPGLRCLNLDVYRIL [NS2a 160-177] | 59 ± 3 SFC/10^6 | 63 ± 18 SFC/10^6 |  |  |
| LVKTESWILRNPGYALVA [prM 121-138] |  |  | 130 ± 23 SFC/10^6 | 56 ± 6 SFC/10^6 |
| WDFGSVGGVFTSVGKAVH [E 426-443] | 83 ± 13 SFC/10^6 |  |  |  |
| CLNLDVYRILLLMVGI [NS2a 168-183] | 231 ± 16 SFC/10^6 |  | 556 ± 33 SFC/10^6 |  |
| CYGGHTNEDDSNFAHW [NS3 474-489] | 83 ± 23 SFC/10^6 | 92 ± 18 SFC/10^6 |  |  |
| IKYEVAIFVHGPTTVESH [E 135-152] | 86 ± 13 SFC/10^6 |  |  |  |
| SGCWYGMEIRPQRHDEK [NS1 327-343] |  |  |  | 78 ± 4 SFC/10^6 |
| AEVRSYCYLATVSDLSTK [E 54-71] |  |  |  | 205 ± 56 SFC/10^6 |
| VWLAYKVAAAGVSYHDRR [NS3 545-562] | 110 ± 9 SFC/10^6 |  |  |  |
| VAAEMAEALRGLPIRY [NS3 228-243] |  |  |  | 46 ± 9 SFC/10^6 |
| HKSGSSIGKAFTTTLKGA [E 398-415] | 88 ± 1 SFC/10^6 |  | 168 ± 18 SFC/10^6 |  |
| NWVPTGRTTWSIHAGGEW [NS5 791-808] |  |  |  | 78 ± 17 SFC/10^6 |
| EVITKLGERKILRPRWI [NS3 581-597] |  |  |  | 52 ± 11 SFC/10^6 |
| GWPATEVMTAVGLMFAIV [NS2b 1-18] |  |  |  | 104 ± 18 SFC/10^6 |
| LVQSYGWNIVTMKSGVDV [NS5 115-132] | 79 ± 23 SFC/10^6 |  |  |  |
| EKLQLKGTTYGVCSKAFK [E 293-310] |  |  |  | 47 ± 5 SFC/10^6 |
| ARIMLDNINMPNGLIAQF [NS3 492-509] | 216 ± 42 SFC/10^6 |  |  |  |
| PFVDVGVSALLLAAGCW [NS4b 87-103] |  |  |  | 59 ± 14 SFC/10^6 |
| VFTSVGKAVHQVFGGAFR [E 434-451] | 79 ± 19 SFC/10^6 |  | 116 ± 5 SFC/10^6 |  |
| FAESNSGGDVVHLALMA [NS2a 65-81] |  |  |  | 60 ± 13 SFC/10^6 |

| Sequence | T cell activation of HLA transgenic mice (SFC/10^6) IFN-γ ELISpot, DR3 [1] | T cell activation of HLA transgenic mice (SFC/10^6) IFN-γ ELISpot, A2 [2] | T cell activation of HLA transgenic mice (SFC/10^6) IFN-γ ELISpot, DR2 [3] | T cell activation of HLA transgenic mice (SFC/10^6) IFN-γ ELISpot, DR4 [4] |
| --- | --- | --- | --- | --- |
| GAGVMVEGVFHTLWHTTK [NS3 37-54] | 368 ± 66 SFC/10^6 |  | 149 ± 13 SFC/10^6 |  |
| YISAIVQGERMDEPIPA [NS3 161-177] |  | 56 ± 28 SFC/10^6 | 72 ± 15 SFC/10^6 |  |
| DTPSPKEYKKGDTTTGVY [NS3 6-23] |  |  |  | 43 ± 6 SFC/10^6 |
| YFHRRDLRLMANAICSAV [NS5 771-788] |  |  |  | 135 ± 47 SFC/10^6 |
| EKVYTMDGEYRLRGEERK [NS3 515-532] |  | 140 ± 24 SFC/10^6 | 95 ± 27 SFC/10^6 |  |
| AHWTEARIMLDNINM [NS3 487-501] | 431 ± 112 SFC/10^6 | 308 ± 188 SFC/10^6 |  |  |
| NMPNGLIAQFYQPEREKV [NS3 500-517] | 145 ± 49 SFC/10^6 |  | 51 ± 10 SFC/10^6 |  |
| WHTTKGAALMSGEGRL [NS3 50-65] | 191 ± 37 SFC/10^6 |  |  |  |
| LGALLLWMGINARDRSIA [E 465-482] | 330 ± 91 SFC/10^6 | 310 ± 186 SFC/10^6 | 490 ± 64 SFC/10^6 |  |
| HFMGKTWEALDTMYVVA [NS4a 15-31] |  |  | 278 ± 26 SFC/10^6 | 187 ± 20 SFC/10^6 |
| PQIIKEAINRRLRTAVLA [NS3 206-223] |  | 108 ± 22 SFC/10^6 | 323 ± 21 SFC/10^6 |  |
| LAVGGVLLFLSVNVHA [E 486-501] | 244 ± 16 SFC/10^6 | 323 ± 173 SFC/10^6 | 214 ± 27 SFC/10^6 |  |
| LATVSDLSTKAACPTM [E 62-77] |  | 465 ± 343 SFC/10^6 |  | 47 ± 4 SFC/10^6 |
| KVLIELEPPFGDSYIVV [E 370-386] |  |  |  | 148 ± 10 SFC/10^6 |
| RLNDTWKLERAVLGEVK [NS1 205-221] |  |  |  | 61 ± 15 SFC/10^6 |
| VHQVFGGAFRSLFGGMSW [E 442-459] | 101 ± 15 SFC/10^6 | 442 ± 313 SFC/10^6 | 117 ± 5 SFC/10^6 |  |
| VFHTLWHTTKGAALM [NS3 45-59] | 63 ± 10 SFC/10^6 |  |  |  |
| RGWGNGCGLFGKGSI [E 99-113] | 79 ± 7 SFC/10^6 |  |  |  |
| SQIGLIEVLGKMPEHFM [NS4a 1-17] | 132 ± 17 SFC/10^6 |  |  |  |
| DRRWCFDGPRTNTIL [NS3 560-574] | 225 ± 10 SFC/10^6 |  |  |  |
| EYRLRGEERKNFLELLR [NS3 523-539] |  | 57 ± 11 SFC/10^6 | 160 ± 48 SFC/10^6 |  |

| Sequence | T cell activation of HLA transgenic mice (SFC/10^6) IFN-γ ELISpot, DR3 [1] | T cell activation of HLA transgenic mice (SFC/10^6) IFN-γ ELISpot, A2 [2] | T cell activation of HLA transgenic mice (SFC/10^6) IFN-γ ELISpot, DR2 [3] | T cell activation of HLA transgenic mice (SFC/10^6) IFN-γ ELISpot, DR4 [4] |
| --- | --- | --- | --- | --- |
| FRSLFGGMSWITQGLLGA [E 450-467] | 104 ± 21 SFC/10^6 | 205 ± 145 SFC/10^6 | 261 ± 13 SFC/10^6 |  |
| FDGPRTNTILEDNNEVEV [NS3 565-582] | 59 ± 3 SFC/10^6 |  |  |  |
| ATPPGTSDPFPESNSPI [NS3 317-333] |  | 151 ± 18 SFC/10^6 |  |  |
| DTGCAIDISRQELRCGSGV [NS1 1-19] | 572 ± 20 SFC/10^6 |  |  |  |
| NTFTNLAVQLVRMMEGEGV [NS5 613-631] |  |  |  | 119 ± 21 SFC/10^6 |
| PATAWSLYAVTTAVLTPL [NS4b 38-55] | 67 ± 13 SFC/10^6 |  | 57 ± 11 SFC/10^6 |  |
| GQVVTYALNTFTNLAVQL [NS5 605-622] |  |  | 556 ± 27 SFC/10^6 | 240 ± 76 SFC/10^6 |
| GRTILKENIKYEVAIFVH [E 127-144] | 198 ± 21 SFC/10^6 |  | 120 ± 1 SFC/10^6 |  |
| VIGLYGNGVIMPNGSYI [NS3 146-162] |  | 58 ± 38 SFC/10^6 |  |  |
| VVNPSVKTVREAGILITA [NS4b 187-204] |  |  |  | 83 ± 13 SFC/10^6 |
| EQQINHHWHKSGSSIGKA [E 390-407] | 50 ± 6 SFC/10^6 |  |  |  |
| EGRVEIDFDYCPGTTVTL [NS1 270-287] |  |  |  | 54 ± 6 SFC/10^6 |
| TLTHRLMSPHRVPNYNLF [NS3 265-282] |  | 150 ± 30 SFC/10^6 | 169 ± 16 SFC/10^6 |  |
| GWYDWQQVPFCSNHFTEL [NS5 704-721] |  |  |  | 65 ± 27 SFC/10^6 |
| NEDDSNFAHWTEARIML [NS3 480-496] | 121 ± 1 SFC/10^6 |  |  |  |
| GVFIHNDVEAWMDRYKYY [NS1 18-35] | 52 ± 8 SFC/10^6 |  |  |  |
| MLRKKQITVLDLHPGAGK [NS3 183-200] |  | 62 ± 24 SFC/10^6 | 55 ± 2 SFC/10^6 |  |
| RQELRCGSGVFIHNDVEA [NS1 10-27] |  |  |  | 63 ± 8 SFC/10^6 |
| GCWGQVTLTVTVTAATLL [NS4b 101-118] |  |  |  | 134 ± 8 SFC/10^6 |
| VTVNPFVSVATANAKVLI [E 356-373] |  |  |  | 217 ± 51 SFC/10^6 |
